# Assays:
# [1] = test system: HCT-116; assay: In vitro anti-proliferative activity, MTT assay, HCT-116; type: cell-based, human; settings: for IC50: Homo sapiens, HCT-116, MTT, 24 h treatment, mean ± S.D. of three separate experiments
# Method: (§1) The cells were obtained from ATCC (American Type Culture Collection) via the Holding company for biological products and vaccines (VACSERA) (Cairo, Egypt). […] After incubation period, the cell lines were treated with different concentration of the synthesized compounds and incubated for 24 h. After treatment by 24 h, 20 μL of MTT solution (5 mg mL^−1) was added and incubated for 4 h. Dimethyl sulfoxide (100 μL) was added into each well to dissolve the formed purple formazan. […] The relative cell viability in percentage was calculated as (A570 of treated samples/A570 of untreated sample) X 100.
# [2] = test system: HepG-2; assay: In vitro anti-proliferative activity, MTT assay, HepG-2; type: cell-based, human; settings: for IC50: Homo sapiens, HepG2, MTT, 24 h treatment, mean ± S.D. of three separate experiments
# Method: as §1
# [3] = test system: MCF-7; assay: In vitro anti-proliferative activity, MTT assay, MCF-7; type: cell-based, human; settings: for IC50: Homo sapiens, MCF7, MTT, 24 h treatment, mean ± S.D. of three separate experiments
# Method: as §1
# [4] = molecular target: T1, purified bovine tubulin (Bos taurus, UniProt P81947+Q6B856); assay: In vitro tubulin polymerization assay; type: biochemical; settings: purified bovine tubulin 10 μM, 37 °C; read-out: IC50 Tubulin polymerization inhibition
# T1 construct: purified bovine tubulin (10 μM); from tissue; host or cells: bovine
# T1 sequence (Q6B856 whole entry): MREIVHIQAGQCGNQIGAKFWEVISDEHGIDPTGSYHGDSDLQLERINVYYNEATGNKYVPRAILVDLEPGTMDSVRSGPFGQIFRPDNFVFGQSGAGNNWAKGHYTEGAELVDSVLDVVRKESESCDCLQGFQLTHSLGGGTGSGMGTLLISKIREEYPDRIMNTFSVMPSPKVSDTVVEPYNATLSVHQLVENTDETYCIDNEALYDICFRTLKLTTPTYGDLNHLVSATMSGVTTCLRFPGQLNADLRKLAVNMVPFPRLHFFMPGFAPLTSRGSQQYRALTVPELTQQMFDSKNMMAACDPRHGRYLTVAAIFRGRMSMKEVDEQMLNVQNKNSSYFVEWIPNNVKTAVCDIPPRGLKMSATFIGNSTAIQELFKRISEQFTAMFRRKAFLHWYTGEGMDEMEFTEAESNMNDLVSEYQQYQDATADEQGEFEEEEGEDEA
# T1 sequence (P81947 whole entry): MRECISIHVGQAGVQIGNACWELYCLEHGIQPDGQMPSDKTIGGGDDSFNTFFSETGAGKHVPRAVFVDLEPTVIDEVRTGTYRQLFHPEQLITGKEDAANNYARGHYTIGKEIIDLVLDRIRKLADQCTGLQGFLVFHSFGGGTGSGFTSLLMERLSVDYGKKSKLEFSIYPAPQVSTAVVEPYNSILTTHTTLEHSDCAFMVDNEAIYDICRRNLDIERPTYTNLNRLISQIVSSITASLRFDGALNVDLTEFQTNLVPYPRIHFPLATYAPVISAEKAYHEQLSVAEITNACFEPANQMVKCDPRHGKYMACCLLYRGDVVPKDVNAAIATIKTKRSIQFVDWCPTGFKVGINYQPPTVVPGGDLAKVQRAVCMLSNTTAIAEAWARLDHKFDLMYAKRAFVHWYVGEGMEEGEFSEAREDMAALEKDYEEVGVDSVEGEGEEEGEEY
# Method: The inhibition assay on microtubule polymerization was evaluated turbidimetrically using a fluorescent plate reader.[52]
# [5] = test system: HepG-2 cells; assay: Cell cycle analysis (PI staining, flow cytometry); type: cell-based, human
# Method: To gain a better insight into the impact of compound 5a on cancer cell growth inhibition, its impact on cell cycle distribution and apoptosis induction was assessed using HepG-2 cells according to the method outlined by Wang et al.[53] In fact, anticancer agents hinder cancer cell growth and multiplication by arresting cell division at distinct checkpoints, and that cells resist apoptosis are highly resistant to cancer treatment.[54]
# HepG-2 cells were seeded at density of 2 × 10^5 cells per well and incubated for 24 h in six-well plates. Fetal bovine serum (FBS, 10%) was added, after that cells were incubated at 37 °C and 5% CO2. The medium was replaced with (DMSO 1% v/v) containing the 2.5 μM of compound 5a, then incubated for 48 h, washed with cold phosphate buffered saline (PBS), fixed with 70% ethanol, rinsed with PBS then stained with the DNA fluorochrome PI, kept for 15 min at 37 °C. Then samples were analyzed with a FACS Caliber flow cytometer.[53]
# [6] = test system: HepG-2 cells; assay: Annexin V-FITC apoptosis assay; type: cell-based, human; settings: HepG-2, 5a at 2.5 μM for 24 h
# Method: To further confirm Apoptotic effect of compound 5a in HepG-2 cells, Annexin V and PI double staining assay was performed.[55] In this test, HepG-2 cells were incubated with compound 5a at concentration of 2.5 μM for 24 h.
# The effect of the most cytotoxic compound 5a on apoptosis induction was analyzed using Annexin V-FITC/PI apoptosis detection kit. In this test, HepG-2 cells were stained with Annexin V fluorescein isothiocyanate (FITC) and counterstained with propidium iodide (PI). Then, HepG-2 cells in a density of 2 × 10^5 per well were incubated with compound 5a for […]. Next, the cells were trypsinized, washed with phosphate-buffered saline (PBS), and stained for 15 min at 37 °C in the dark. Finally, FACS Caliber flow cytometer was used in analysis process.[55]
IC50 [1],IC50 [3],IC50 [4],melting point,Compound,times as active as colchicine against HCT-116 ([1]; ratio of IC50 values),IC50 [2],times as active as colchicine against HepG-2 ([2]; ratio of IC50 values),times as active as colchicine against MCF-7 ([3]; ratio of IC50 values),"Cell cycle distribution % Pre-G1 ([5]; HepG-2, 5a at 2.5 μM for 48 h, control 2.14)","Cell cycle distribution % G2-M ([5]; HepG-2, 5a at 2.5 μM for 48 h, control 5.09)","Cell cycle distribution % S ([5]; HepG-2, 5a at 2.5 μM for 48 h, control 38.15)","Cell cycle distribution % G0-G1 ([5]; HepG-2, 5a at 2.5 μM for 48 h, control 56.76)",effect on cell cycle ([5]; HepG-2 cells),Necrosis ([6]; control 0.48),Apoptosis Late ([6]; control 0.64),Apoptosis Early ([6]; control 1.02),Apoptosis Total ([6]; control 2.14)
12 ± 0.3 µM,20 ± 0.4 µM,0.0384 ± 0.0014 µM,272 to 274 °C,"C/C(=N\NC1=N/C(=C/c2ccc(Cl)cc2)C(=O)S1)c1ccco1 [Compound 8h, 4-((E)-4-Chlorobenzylidene)-2-(2-((E)-1-(furan-2-yl)ethylidene)hydra-zinyl)thiazol-5(4H)-one]",–,10.3 ± 0.6 µM,–,–,–,–,–,–,–,–,–,–,–
10.28 ± 0.1 µM,7.89 ± 0.5 µM,0.0132 ± 0.0009 µM,282 to 284 °C,"C/C(=N\NC1=N/C(=C/c2ccc(O)cc2O)C(=O)S1)c1ccco1 [Compound 8l, 4-((E)-2,4-Dihydroxybenzylidene)-2-(2-((E)-1-(furan-2-yl)ethylidene) hydrazinyl) thiazol-5(4H)-one]",–,3.73 ± 0.1 µM,–,–,–,–,–,–,–,–,–,–,–

# Second part, the molecule before the results:
Compound,IC50 [1],IC50 [3],IC50 [4],melting point,times as active as colchicine against HCT-116 ([1]; ratio of IC50 values),IC50 [2],times as active as colchicine against HepG-2 ([2]; ratio of IC50 values),times as active as colchicine against MCF-7 ([3]; ratio of IC50 values),"Cell cycle distribution % Pre-G1 ([5]; HepG-2, 5a at 2.5 μM for 48 h, control 2.14)","Cell cycle distribution % G2-M ([5]; HepG-2, 5a at 2.5 μM for 48 h, control 5.09)","Cell cycle distribution % S ([5]; HepG-2, 5a at 2.5 μM for 48 h, control 38.15)","Cell cycle distribution % G0-G1 ([5]; HepG-2, 5a at 2.5 μM for 48 h, control 56.76)",effect on cell cycle ([5]; HepG-2 cells),Necrosis ([6]; control 0.48),Apoptosis Late ([6]; control 0.64),Apoptosis Early ([6]; control 1.02),Apoptosis Total ([6]; control 2.14)
"C/C(=N\NC1=N/C(=C/c2cccs2)C(=O)S1)c1ccc(C)cc1 [Compound 5a, (E)-4-(Thiophen-2-ylmethylene)-2-(2-((E)-1-(p-tolyl)ethylidene)hydrazinyl) thiazol-5(4H)-one]",6.41 ± 0.1 µM,4.51 ± 0.6 µM,0.00952 ± 0.0003 µM,202 to 204 °C,1.45 times,3.34 ± 0.1 µM,2.23 times,2.32 times,15.33%,20.55%,39.28%,40.17%,cell arrest at G2/M phase,1.54%,5.54%,8.25%,15.33%
"C/C(=N\NC1=N/C(=C/c2ccc(Cl)cc2Cl)C(=O)S1)c1ccc(C)cc1 [Compound 4d, 4-((E)-2,4-Dichlorobenzylidene)-2-(2-((E)-1-(p-tolyl)ethylidene)hydrazinyl) thiazol-5(4H)-one]",10.6 ± 0.4 µM,14.8 ± 0.6 µM,0.0197 ± 0.0008 µM,> 300 °C,–,6.6 ± 0.1 µM,–,–,–,–,–,–,–,–,–,–,–
"COc1ccc(/C=C2/N=C(N/N=C(\C)c3ccc(C)cc3)SC2=O)cc1OC [Compound 4e, 4-((E)-3,4-Dimethoxybenzylidene)-2-(2-((E)-1-(p-tolyl)ethylidene)hydrazinyl) thiazol-5(4H)-one]",13 ± 0.2 µM,18.2 ± 0.5 µM,0.0474 ± 0.0018 µM,254 to 256 °C,–,12.44 ± 0.1 µM,–,–,–,–,–,–,–,–,–,–,–

# From publication PMC9048505 (RSC Advances, 2020)
